Measured values published in publication PMC7712428, “Dimethoate Induces DNA Damage and Mitochondrial Dysfunction Triggering Apoptosis in Rat Bone-Marrow and Peripheral Blood Cells” (Toxics, 2020).
Like-named read-outs stand apart in the source and are kept apart here. Marks after values point to notes of the source that are not given here.

Columns and labels:
bone marrow cells = details: for P/N: PCE:NCE ratio
Description: (§1) The experimental animals—Rattus norvegicus (Wistar strain; 8–10 weeks old; 120 ± 20 gm; males only) were acquired from Indian Institute of Integrative Medicine (IIIM-CSIR) (Jammu, India), quarantined, acclimatized and sacrificed as per standard practice conforming to the University Ethical Regulations. After acclimatization, rats were divided into five groups by stratified randomization with five animals per group. […] Distilled water was used to prepare dosing solutions of test agent and injected via intraperitoneal (i.p.) injection. At 24, 48 and 72 h post-dosing, 5 rats per duration were sacrificed and necessary tissues were isolated for different cytogenetic and molecular parameters. For CA assessment, separate experimental lot was used due to colchicine treatment.
MN assay followed the protocol of Schmid. Immediately after sacrificing the animals, both femurs were removed from the pelvic bone and freed from the extra muscles. After cutting the epiphyses, the bone marrow was collected by gentle flushing with 2 mL FBS. Centrifuge cell suspension at 1000 rpm for 5 min and discarded the supernatant. The pellets obtained were saved in 50 μL fresh FBS. Re-suspended the cell pellet and a small drop was spread onto clean grease-free glass slides and dried in air. By using absolute methanol, the smears were fixed for 10min following the staining by May-Grunwald / buffered Giemsa at pH 6.8. Micronuclei and the ratio of polychromatic erythrocyte (PCE) to normochromatic erythrocyte (NCE) i.e., P/N were scored. The micronucleus frequencies (indicated as mean percent micronucleated cells) were examined by considering the micronucleated PCEs number (MNPCEs) from at least 2000 PCEs/animal. Cytotoxic effect of test compound was evaluated by calculating the PCE:NCE ratio in at least 1000 erythrocytes per animal. For final observation, DPX mounted slides were photographed at 100× with oil immersion (Olympus U—PMTV microscope mounted with optical zoom camera).

rat WBCs = details: Mean ± SD, 40 mg/kgbw; for Sub-G1: cells percentage (apoptosis); for G1 / G2/M / S: cells percentage
Description: as §1
(§2) WBCs were isolated by following the protocol of Lone et al.. Blood was collected in 0.1% EDTA from retro-orbital plexus of rat, followed by incubation for 30 min. 500 µL of blood was then added to a centrifuge tube with 1 mL FACS lysing solution. The blood was incubated for 10 min and centrifuged (2000 rpm, 10 min) at 25 °C. After discarding the supernatant, pellet was washed in 1mL FACS lysing solution followed by centrifuging at 2000 rpm for 5 min. Repeated this step twice and then pellet was put in 500 µL of PBS, leaving only WBCs.
Post completion of exposures, PBS was used to wash the harvested cells and fixed in cold ethanol (70%) for 48 h. Cells were digested by RNase (400 μg/mL) at 37 °C for 45 min. After incubating the cells with Propidium iodide (10 μg/mL), examined instantly on flow cytometer FACSAriaII (Becton Dickinson, San Jose, CA, USA). A total of 10,000 events were obtained for cell cycle analysis.

[1] = cited from earlier work
Lymphocytes = details: initial exposure time
Description: as §1, §2
Protocol of Majeed and colleagues was employed for flow cytometric measurements of change in Ψm. […] Leukocytes were identified via forward and side scatter.

O=P1(N(CCCl)CCCl)NCCCO1 (centres unmarked) [Cyclophosphamide, reference compound]
MNPCE (Mean% ± SD) (bone marrow cells; 40 mg/kgbw i.p., 24 h): 10.6 ± 0.81 % | MNPCE (Mean% ± SD) (bone marrow cells; 40 mg/kgbw i.p., 48 h): 8.2 ± 0.66 % | MNPCE (Mean% ± SD) (bone marrow cells; 40 mg/kgbw i.p., 72 h): 7.1 ± 0.43 % | P/N (bone marrow cells; 40 mg/kgbw i.p., 24 h): 0.604 * | P/N (bone marrow cells; 40 mg/kgbw i.p., 48 h): 0.529 ** | P/N (bone marrow cells; 40 mg/kgbw i.p., 72 h): 0.581 ** | Sub-G1 (rat WBCs; 24 h): 91.3 ± 4.12 ***^,a | Sub-G1 (rat WBCs; 48 h): 76.3 ± 4.16 ***^,a | Sub-G1 (rat WBCs; 72 h): 98.4 ± 6.01 ***^,a | G1 (rat WBCs; 24 h): 6.06 ± 1.26 | G2/M (rat WBCs; 24 h): 2.53 ± 0.06 | S (rat WBCs; 24 h): 0.2 ± 0.01 | G1 (rat WBCs; 48 h): 21.33 ± 2.41 | G2/M (rat WBCs; 48 h): 1.3 ± 0.2 | S (rat WBCs; 48 h): 0.06 ± 0.01 | G1 (rat WBCs; 72 h): 0.87 ± 0.03 | G2/M (rat WBCs; 72 h): 0.4 ± 0.02 | S (rat WBCs; 72 h): 0.33 ± 0.11

CNC(=O)CSP(=S)(OC)OC [DM, 0,0- Dimethyl S-(N-methylcarbamoylmethyl) phosphorodithiote]
hazard label [1]: Class II, moderately hazardous | MNPCE (Mean% ± SD) (bone marrow cells; 20 mg/kgbw i.p., 24 h): 4.4 ± 0.51 % | MNPCE (Mean% ± SD) (bone marrow cells; 20 mg/kgbw i.p., 48 h): 4.0 ± 0.44 % | MNPCE (Mean% ± SD) (bone marrow cells; 20 mg/kgbw i.p., 72 h): 3.6 ± 0.50 % | MNPCE (Mean% ± SD) (bone marrow cells; 40 mg/kgbw i.p., 24 h): 5.2 ± 0.58 % | MNPCE (Mean% ± SD) (bone marrow cells; 40 mg/kgbw i.p., 48 h): 4.8 ± 0.86 % | MNPCE (Mean% ± SD) (bone marrow cells; 40 mg/kgbw i.p., 72 h): 4.1 ± 0.73 % | MNPCE (Mean% ± SD) (bone marrow cells; 60 mg/kgbw i.p., 24 h): 5.6 ± 0.7% | MNPCE (Mean% ± SD) (bone marrow cells; 60 mg/kgbw i.p., 48 h): 4.9 ± 0.74 % | MNPCE (Mean% ± SD) (bone marrow cells; 60 mg/kgbw i.p., 72 h): 3.8 ± 0.80 % | P/N (bone marrow cells; 20 mg/kgbw i.p., 24 h): 0.740 * | P/N (bone marrow cells; 20 mg/kgbw i.p., 48 h): 0.736 * | P/N (bone marrow cells; 20 mg/kgbw i.p., 72 h): 0.731 * | P/N (bone marrow cells; 40 mg/kgbw i.p., 24 h): 0.728 * | P/N (bone marrow cells; 40 mg/kgbw i.p., 48 h): 0.715 * | P/N (bone marrow cells; 60 mg/kgbw i.p., 24 h): 0.725 * | P/N (bone marrow cells; 60 mg/kgbw i.p., 48 h): 0.721 * | P/N (bone marrow cells; 60 mg/kgbw i.p., 72 h): 0.718 * | maximum MMP loss (Lymphocytes; lymphocytes): greater than 30% | MMP loss in lymphocytes (Lymphocytes; range over increased DM doses): 6.3–32.3%
